Source: patent US9115122B2, “Non-ATP dependent inhibitors of extracellular signal-regulated kinase (ERK)” (UNIVERSITY OF MARYLAND, BALTIMORE, priority 2012, dated 2015)
Read-outs that look alike come from different tables or passages of the source.

Experiments:
A375 melanoma cells [1] = experiment: Dose-response growth inhibition (GI50) of select compounds; type: cell-based; conditions: two days
Experimental: (§1) An example of the dose response curve for compound 30h and the BRaf inhibitor PLX4032 for inhibiting the growth of melanoma cell lines is shown in FIG. 14. […] A summary of GI50 values for select compounds along with comparisons to know ERK pathway inhibitors in various cell lines is shown in Table 13. […] First, thiazolidinedione compounds have been identified to be selective inhibitors of cancer cell lines containing activated ERK signaling. Second, changes in the 4-ethoxyphenyl component of the parent compound 76 improve selectivity and potency for inhibiting melanoma cell growth. Third, compound 30h is a potent inhibitor of melanoma cell lines that have become resistant to the clinically relevant BRaf and MEK inhibitors. […] Lastly, 30h is as potent as the ATP-competitive pyrazolopyridazinamine ERK inhibitor (FR180204) in preventing melanoma cell proliferation and provides an alternative non-ATP-dependent approach to target cancer cells that are dependent on active ERK signaling.
(§2) Melanoma cells (A375, SK-MEL-28, and RPMI7951) were seeded at a density of 5,000 per well in 96-well plate. After overnight incubation, cells were treated with varying doses of PLX4032 (A) or 31h (B) for two days. Cell viability was determined by the addition of Cell Titer-Blue Reagent (20 μL/well) followed by 2 hours of incubation at 37° C. after which fluorescence was recorded (555/585 nm). Cell viability was expressed as percentage of vehicle control and data represent the average of three individual experiments.

RPMI7951 melanoma cells [2] = experiment: as above; type: cell-based; conditions: two days
Experimental: as §1, §2

SK-MEL-28 melanoma cells [3] = experiment: as above; type: cell-based; conditions: two days
Experimental: as §1, §2

HeLa cells = experiment: as above; type: cell-based
Jurkat cells = experiment: as above; type: cell-based
A375 melanoma cells [4] = experiment: Cell proliferation WST-1 assay, single dose (Example 4); type: cell-based; conditions: 100 μM, 48 hours
How it was run: (§3)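 About 5000 cells per well recovered for 16–20 h and were then treated with a single dose of compound for 48 h. Proliferation was read by WST-1 absorbance at 450 nm minus 650 nm background and normalized to DMSO-only controls.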

HL-60 leukemic cells = experiment: as above; type: cell-based; conditions: 100 μM, 48 hours
How it was run: as §3

[5] = tested on: HeLa cervical carcinoma cells; experiment: as above; type: cell-based; conditions: 100 μM, 48 hours
How it was run: as §3

[6] = tested on: Jurkat T-cell leukemia cells; experiment: as above; type: cell-based; conditions: 100 μM, 48 hours
How it was run: as §3

RPMI-7951 melanoma cells = experiment: as above; type: cell-based; conditions: 100 μM, 48 hours
How it was run: as §3

SK-MEL-28 melanoma cells [7] = experiment: as above; type: cell-based; conditions: 100 μM, 48 hours
How it was run: as §3

[8] = tested on: serum response element (SRE); experiment: SRE promoter luciferase assay, HeLa cells (Example 4); type: cell-based; conditions: EGF
Experimental: (§4) HeLa cells were seeded in 24-well plates (4×10^4 cells/well) and incubated 18 hours prior to achieve ˜60-70% confluent. Cells were transfected with activator protein-1 (pAP1(PMA)-TA-Luc; Clontech) or the serum response element (pGL4.33-SRE; Promega) luciferase reporter plasmids (250 ng/well) using Lipofectamine™ (Invitrogen). After 16 hours, cells were treated with increasing amount of compounds as indicated for 20 minutes, followed by stimulation with EGF (25 ng/mL) for 4.5 hr. The luciferase activity in the cell extracts was determined with a Dual Luciferase Assay System (Promega) according to the manufacturer's instructions. Luciferase activities were monitored with a Lumat LB 9507 luminometer (Berthold Technology) and data were normalized to the amount of protein in each sample.

A375 melanoma cells [9] = experiment: Cell proliferation, fluorescent Cell Titer Blue Assay (Example 1); type: cell-based; conditions: Homo sapiens, A-375; 48 hours
Experimental: (§5) FIG. 5. Dose dependent inhibition of cancer cell proliferation in vitro by SF-3-026 and analogs. A375 (closes circles), RPM17951 (closed squares), HeLa (open circles), or Jurkat (open squares) cells were treated for 48 hours with indicated concentration of (a) SF-3-026, (b) SF-2-027, (c) SF-2-029, or (d) SF-2-030 and cell proliferation was assessed by the fluorescent Cell Titer Blue Assay. The data were reproduced in 3 separate experiments.
(§6) Cells were seeded at 25,000 cells/well in 96-well plate and cultured overnight. Cells were treated for 24 hours with various concentrations of compounds and cell viability or caspase 3/7 activity were measured according to manufacturer's instructions using the fluorescent Cell Titer Blue Assay (Promega) or luminescent Caspase 3/7 Glo Assay (Promega).
(§7) It was next determined whether inhibition of AP-1 proteins by SF-3-026 and analogs affected the proliferation of cancer cells driven by mutations that constitutively activate the ERK1/2 pathway. For these experiments, A375 and RPMI7951 melanoma cells, which have a valine to glutamate mutation on residue 600 in BRaf that causes constitutive ERK1/2 activation, were chosen. Moreover, RPMI7951 cells are resistant to clinically used BRaf inhibitors due to overexpression of MAP3K8 (the gene encoding COT/Tp12) that re-activates ERK1/2 signaling. Both melanoma cells lines were treated with varying doses of SF-3-026 or analogs and cell viability was compared to HeLa cervical carcinoma and Jurkat T-cell leukemia cells, which are p53 defective but contain no known activating mutations in the ERK1/2 pathway.

[10] = tested on: HeLa cervical carcinoma cells; experiment: as above; type: cell-based; conditions: Homo sapiens, 48 hours
Experimental: as §5, §6, §7

[11] = tested on: Jurkat T-cell leukemia cells; experiment: as above; type: cell-based; conditions: Homo sapiens, 48 hours
Experimental: as §5, §6, §7

RPMI7951 melanoma cells [12] = experiment: as above; type: cell-based; conditions: Homo sapiens, RPMI-7951; 48 hours
Experimental: as §5, §6, §7

[13] = tested on: MEK1-induced AP-1 promoter activity; experiment: AP-1 promoter luciferase assay, HeLa cells expressing active MEK1 mutant; type: cell-based; conditions: Homo sapiens, 4 hours, read-out: IC50 inhibition of MEK1-induced AP-1 promoter activity
Experimental: FIG. 4. Compound SF-3-026 and analogs inhibit SRE and AP-1 transcription factor function. (a) HeLa cells were transfected with constructs containing SRE or AP-1 promoters driving luciferase expression and then stimulated with EGF in the presence or absence of SF-3-026 for 4 hours followed by measurements of luciferase activity. Cells treated with U0126 were used as a positive inhibitor control. (b and c) HeLa cells were prepared and treated as in (a) with the indicated concentrations of SF-3-026 or analogs for 4 hours followed by the measurement of luciferase activity regulated by the SRE (b) or AP-1 (c) promoters. Data in (b and c) were normalized to EGF-only treatment and represent the mean and standard deviation from three independent experiments. (d) Compound SF-3-026 and analogs inhibit MEK1-induced AP-1 transcription factor function. HeLa cells were transfected with the AP-1 promoter construct and a constitutively active MEK1 mutant in the presence (10 μM) or absence of the MEK1/2 inhibitor (U0126) or an ATP-competitive ERK inhibitor (ERKi) for 4 hours followed by measurements of luciferase activity. (e) Cells expressing the AP-1 promoter and an active MEK-1 construct were treated with the indicated concentrations of SF-3-026 or analogs for 4 hours followed by the measurement of luciferase activity. Data in (e) were normalized to active MEK1-only treatment and represent the mean and standard deviation from three independent experiments.
as §4, with “(40,000” for “(4×10^4”, “hours” for “hours prior”, “pre-treated” for “treated”, “varying amounts” for “increasing amount”, “hr. In some experiments, cells transfected with the pAP1(PMA)-TA-Luc promoter and a constitutively active MEK1 mutant cDNA were treated with varying amounts of compounds during the last 4 hours of incubation.” for “hr.”, “sample. […]” for “sample.”

[14] = basic group replacing the ethylamine group; cited from earlier work

SMILES	GI50 (A375 melanoma cells [1]; Homo sapiens, A-375, 48 h) [nM]	GI50 (RPMI7951 melanoma cells [2]; Homo sapiens, RPMI-7951, 48 h) [µM]	GI50 (SK-MEL-28 melanoma cells [3]; Homo sapiens, SK-MEL-28, 48 h) [nM]	Cell Viability (% of Vehicle) A375 (A375 melanoma cells [4])	Cell Viability (% of Vehicle) HL-60 (HL-60 leukemic cells)	Cell Viability (% of Vehicle) HeLa [5]	Cell Viability (% of Vehicle) Jurkat [6]	Cell Viability (% of Vehicle) RPMI-7951 (RPMI-7951 melanoma cells)	Cell Viability (% of Vehicle) SK-MEL-28 (SK-MEL-28 melanoma cells [7])	also measured
Cn1cnc2c(F)c(Nc3ccc(Br)cc3Cl)c(C(=O)NOCCO)cc21 [AZD6244, reference compound]	30	20	170							GI50 (HeLa cells; Homo sapiens, HeLa): > 10 µM; GI50 (Jurkat cells; Homo sapiens, Jurkat): > 10 µM
Cc1ccc(S(=O)(=O)OC2C=CS(=O)(=O)C2)cc1 (stereo not shown) [SF-3-027]										GI50 (A375 melanoma cells [9]): 5.5 µM; GI50 [10]: 22 µM; GI50 [11]: > 50 µM; GI50 (RPMI7951 melanoma cells [12]): 3.1 µM; IC50 [13]: ~40 µM
Nc1[nH]nc2nnc(-c3c(-c4ccccc4)nn4ccccc34)cc12 [FR180204, reference compound]										GI50 (A375 melanoma cells [1]): 5000 nM; GI50 (RPMI7951 melanoma cells [2]): 11 µM; GI50 (SK-MEL-28 melanoma cells [3]): 4000 nM; GI50 (HeLa cells): > 10 µM; GI50 (Jurkat cells): > 10 µM
CCOc1ccc(/C=C2\SC(=O)N(Cc3cnc[nH]3)C2=O)cc1 [Compound 28a, (Z)-3((1H-imidazol-5-yl)methyl)-5-(4-ethoxybenzylidene)thiazolidine-2,4-dione]				101 ± 2 % of Vehicle	123 ± 20 % of Vehicle	80 ± 4 % of Vehicle	106 ± 6 % of Vehicle	70 ± 2 % of Vehicle	74 ± 6 % of Vehicle	pKa [14]: ~7
CCOc1ccc(/C=C2\SC(=O)N(C[C@H](N)C(=O)OC)C2=O)cc1 [Compound 22d, (S,Z)-methyl 2-amino-3-(5-(4-ethoxybenzylidene)-2,4-dioxothiazolidin-3-yl)propanoate]				41 ± 11 % of Vehicle	25 ± 5 % of Vehicle	87 ± 4 % of Vehicle	100 ± 5 % of Vehicle	1.8 ± 0.1 % of Vehicle	33 ± 9 % of Vehicle	
N#Cc1ccc(COc2ccccc2/C=C2\SC(=O)N(CCN)C2=O)cc1 [Compound 30l, (Z)-4-((2-((3-(2-aminoethyl)-2,4-dioxothiazolidin-5-ylidene)methyl)phenoxy)methyl)benzonitrile]				0.5 ± 0.04 % of Vehicle	5.7 ± 2 % of Vehicle	8.0 ± 2 % of Vehicle	6.7 ± 1 % of Vehicle	0.6 ± 0.03 % of Vehicle	0.5 ± 0.01 % of Vehicle	
CCOc1ccc(/C=C2\SC(=O)N(CCNC(=O)OCC3c4ccccc4-c4ccccc43)C2=O)cc1 [Compound 26e, (Z)-(9H-fluoren-9-yl)methyl (2-(5-(4-ethoxybenzylidene)-2,4-dioxothiazolidin-3-yl)ethyl)carbamate]				43 ± 3 % of Vehicle	103 ± 13 % of Vehicle	85 ± 4 % of Vehicle	139 ± 14 % of Vehicle	27 ± 3 % of Vehicle	29 ± 7 % of Vehicle	

Now from value to compound, other results behind:

GI50 (A375 melanoma cells [1]; Homo sapiens, A-375, 48 h) [nM]	GI50 (RPMI7951 melanoma cells [2]; Homo sapiens, RPMI-7951, 48 h) [µM]	GI50 (SK-MEL-28 melanoma cells [3]; Homo sapiens, SK-MEL-28, 48 h) [nM]	SMILES	Cell Viability (% of Vehicle) A375 (A375 melanoma cells [4])	Cell Viability (% of Vehicle) HL-60 (HL-60 leukemic cells)	Cell Viability (% of Vehicle) HeLa [5]	Cell Viability (% of Vehicle) Jurkat [6]	Cell Viability (% of Vehicle) RPMI-7951 (RPMI-7951 melanoma cells)	Cell Viability (% of Vehicle) SK-MEL-28 (SK-MEL-28 melanoma cells [7])	also measured
24000	17	46000	CCOc1ccc(/C=C2\SC(=O)N(CCCN)C2=O)cc1 [Compound 22a, (Z)-3-(3-aminopropyl)-5-(4-ethoxybenzylidene)thiazolidine-2,4-dione]	0.7 ± 0.1 % of Vehicle	8.0 ± 72 % of Vehicle	12 ± 2 % of Vehicle	9.0 ± 2 % of Vehicle	0.6 ± 0.1 % of Vehicle	0.5 ± 0.01 % of Vehicle	inhibition of ERK-mediated SRE promoter activity [8]: selective inhibition of the SRE promoter activity
70	11	380	CCCS(=O)(=O)Nc1ccc(F)c(C(=O)c2c[nH]c3ncc(-c4ccc(Cl)cc4)cc23)c1F [PLX4032, reference compound]							GI50 (HeLa cells; Homo sapiens, HeLa): > 10 µM; GI50 (Jurkat cells; Homo sapiens, Jurkat): > 10 µM
